Here are results for five compounds from patent publication US9078436B2 (priority 2012, dated 2015).

Like-named read-outs stand apart in the source and are kept apart here.

Series [1] is described as follows: pH of 0.1M solution of the acids tested (Table 1). It counts as physicochemical.
A short description of series [2]: Conversion of PNMDC to MITC as a function of pH. It counts as physicochemical. The settings on record: FIGS. 1 and 2; over three hours and over five minutes. The text has this: In the decomposition of monoalkyldithiocarbamate salt, the rate at which alkyl isothiocyanate is formed can be determined by the pH of the solution. […] At lower pH levels, a competing reaction, particularly hydrolysis to form carbon disulfide and methylammonium ion, can occur, thus lowering the yield of MITC.
While good conversion can occur over a range of pH values, the results shown in FIGS. 1 and 2 indicate an optimum conversion occurring at about pH 3 (e.g., 2.5-3.5).
An HPLC method was developed to allow the reaction mixtures to be analyzed in real time. This procedure stopped the decomposition of PNMDC by converting any unreacted dithiocarbamate ion to a stable nickel salt:
This compound was then detected by its UV absorption at 365 nm. MITC is unaffected by the presence of the Ni^++ ion and is detected by its UV absorption at 230 nm.

`CC(=O)O` [Acetic Acid]: the “pH of 0.1M Solution” value in series [1] is reported as 2.88.

As for `O=C(O)c1ccccc1` [Benzoic Acid], the “pH of 0.1M Solution” value in series [1] was found to be 2.61.

Take `O=C(O)CC(O)(CC(=O)O)C(=O)O` [Citric Acid (1), Citric Acid]: the “pH of 0.1M Solution” value came to 2.06 in series [1] and 2.88 in series [1] (listed as Citric Acid (2)).

Consider `O=CO` [Formic Acid], for which, in series [1], the “pH of 0.1M Solution” value is recorded as 2.39.

With `CNC(=S)[S-].[K+]` [PNMDC, potassium N-methyldithiocarbamate], the “pH of optimum conversion of PNMDC to MITC” value in series [2] was around 3.
